According to ChEMBL document CHEMBL5370688, “Development of HC-258, a Covalent Acrylamide TEAD Inhibitor That Reduces Gene Expression and Cell Migration” (ACS Med Chem Lett, 2023):
Activity calls are given as the source filed them. No cut-off for these calls is given here.

Tests used:
[1] = biological target: Transcriptional enhancer factor TEF-3 (Homo sapiens) (UniProt Q15561); test: Binding affinity to TEAD4 (unknown origin) assessed as covalent adduct formation at 0.3 mM incubated for 2 hrs by Agilent LC/MSD Time-of-Flight Mass Spectrometric analysis
Sequence of Transcriptional enhancer factor TEF-3 (Homo sapiens) (Q15561 whole entry): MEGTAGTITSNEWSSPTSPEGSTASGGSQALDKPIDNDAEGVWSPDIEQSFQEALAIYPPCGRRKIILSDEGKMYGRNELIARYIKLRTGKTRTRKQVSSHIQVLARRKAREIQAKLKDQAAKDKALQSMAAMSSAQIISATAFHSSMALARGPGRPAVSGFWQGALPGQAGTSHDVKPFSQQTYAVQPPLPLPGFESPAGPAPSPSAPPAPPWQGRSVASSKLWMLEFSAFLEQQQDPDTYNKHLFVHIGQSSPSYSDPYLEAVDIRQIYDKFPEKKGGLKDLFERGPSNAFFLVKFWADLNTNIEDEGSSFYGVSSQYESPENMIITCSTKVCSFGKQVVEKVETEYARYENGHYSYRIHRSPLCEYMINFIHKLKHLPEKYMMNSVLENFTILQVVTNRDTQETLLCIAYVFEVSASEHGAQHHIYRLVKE

MDA-MB-231 [2] = test: Inhibition of cell migration in human MDA-MB-231 cells at 10 uM incubated for 48 hrs by xCELLigence RTCA system analysis; assay type: functional, cell-based
MDA-MB-231 [3] = test: Inhibition of TEAD in human MDA-MB-231 cells assessed as reduction in CTGF gene expression level at 10 uM measured after 48 hrs by SYBR green staining based RT-qPCR analysis; assay type: cell-based
[4] = biological target: Transcriptional enhancer factor TEF-3 (Homo sapiens) (UniProt Q15561); test: Binding affinity to TEAD4 (unknown origin) assessed as partial covalent adduct formation at 0.3 mM incubated for 2 hrs by Agilent LC/MSD Time-of-Flight Mass Spectrometric analysis
[5] = biological target: Transcriptional enhancer factor TEF-3 (Homo sapiens) (UniProt Q15561); test: Displacement of bodipy-PA from TEAD4 (unknown origin) measured after 30 mins by FP assay
MDA-MB-231 [6] = test: Inhibition of TEAD in human MDA-MB-231 cells assessed as reduction in AXL gene expression level at 10 uM measured after 48 hrs by SYBR green staining based RT-qPCR analysis; assay type: cell-based
MDA-MB-231 [7] = test: Inhibition of TEAD in human MDA-MB-231 cells assessed as reduction in Cyr61 gene expression level at 10 uM measured after 48 hrs by SYBR green staining based RT-qPCR analysis; assay type: cell-based
MDA-MB-231 [8] = test: Inhibition of TEAD in human MDA-MB-231 cells assessed as reduction in NF2 gene expression level at 10 uM measured after 48 hrs by SYBR green staining based RT-qPCR analysis; assay type: cell-based
MDA-MB-231 [9] = test: Cytotoxicity against human MDA-MB-231 cells at 10 uM; assay type: functional, cell-based
[10] = biological target: Transcriptional enhancer factor TEF-3 (Homo sapiens) (UniProt Q15561); test: Binding affinity to TEAD4 (unknown origin) assessed as change in aggregation temperature at 25 uM by DSLS thermal shift assay
[11] = tested on: YAP1-TEAD1 (Homo sapiens); test: Inhibition of C-terminal NanoLuc-tagged TEAD1 (unknown origin)/C-terminal Halo-Tagged YAP1 (unknown origin) protein-protein interaction transfected in HEK293T cells at 10 uM using Nano-Glo as substrate pre incubated for 4 hrs followed by substrate addition and measured within 10 mins by NanoBRET …; settings: time 250.0 min
[12] = biological target: Transcriptional enhancer factor TEF-3 (Homo sapiens) (UniProt Q15561); test: Displacement of bodipy-PA from TEAD4 (unknown origin) measured after 30 mins by FP assay relative to control

`CCCCCCc1cccc(Nc2ccccc2NC(=O)C=C(C)C)c1` was tested, and the Activity [1] was “inactive”.

For `O=C(O)c1ccccc1Nc1cccc(C(F)(F)F)c1`, the inhibition (MDA-MB-231 [2]) was “inactive”.

In the case of `C=CC(=O)Nc1ccccc1Nc1cccc(CCCCCC)c1`, the inhibition (MDA-MB-231 [3]) is reported as “Active”, the Activity [4] is reported as “Active” and the K [5] is reported as 2.7 µM. For the same compound, the inhibition (MDA-MB-231 [6]) was “Active”, the inhibition (MDA-MB-231 [7]) was “Active” and the inhibition (MDA-MB-231 [8]) was “Active”. For the same compound, the Activity (MDA-MB-231 [9]) was “Active”.

For `CCCCCCc1cccc(Nc2cccc(NC(=O)C3CC3)c2)c1`, the Activity [1] was “inactive”.

For `CCCCCOc1cccc(Nc2cccc(NC(=O)CCl)c2)c1`, the Activity [1] was “Active”, the K [5] was 3.1 µM and the Activity (MDA-MB-231 [9]) was “inactive”.

For `C=CC(=O)Nc1cccc(Nc2cccc(CCCCCC)c2)c1`, the inhibition (MDA-MB-231 [3]) was “Active”, the Activity [1] was “Active” and the K [5] was 1.3 µM. The inhibition (MDA-MB-231 [6]) was “Active”, the inhibition (MDA-MB-231 [7]) was “Active” and the inhibition (MDA-MB-231 [8]) was “Active”. The Activity (MDA-MB-231 [9]) was “Active”.

`CCCCCOc1cccc(Nc2cccc(NC(C)=O)c2)c1` was tested, and the deltaT [10] was 2.5 °C, the inhibition (MDA-MB-231 [3]) was “inactive” and the Activity [1] was “inactive”. For the same compound, the K [5] was over 25 µM, the inhibition (MDA-MB-231 [6]) was “inactive” and the inhibition (MDA-MB-231 [7]) was “inactive”. For the same compound, the inhibition (MDA-MB-231 [8]) was “inactive”, the Activity (MDA-MB-231 [9]) was “inactive” and the inhibition (MDA-MB-231 [2]) was “inactive”. The inhibition [11] was “inactive”.

In the case of `C=CC(=O)Nc1ccccc1Nc1cccc(OCCCCC)c1`, the inhibition (MDA-MB-231 [3]) is reported as “Active”, the Activity [4] is reported as “Active” and the K [5] is reported as over 20 µM. The inhibition (MDA-MB-231 [6]) was “Active”, the inhibition (MDA-MB-231 [7]) was “Active” and the inhibition (MDA-MB-231 [8]) was “Active”. The Activity (MDA-MB-231 [9]) was “inactive” and the inhibition (MDA-MB-231 [2]) was “Active”.

For `CCCCCCc1cccc(Nc2ccccc2NC(=O)CCl)c1`, the Activity [1] was “Active”, the inhibition [12] was 80% and the K [5] was 2.3 µM.

For `CCCCCCc1cccc(Nc2cccc(NC(=O)C=C(C)C)c2)c1`, the Activity [1] was “inactive”.

With `CCCCCCc1cccc(Nc2cccc(NC(=O)CCl)c2)c1` the inhibition (MDA-MB-231 [3]) was “Active”, the Activity [1] was “Active” and the K [5] was 1 µM. The inhibition (MDA-MB-231 [6]) was “inactive”, the inhibition (MDA-MB-231 [7]) was “Active” and the inhibition (MDA-MB-231 [8]) was “inactive”. For the same compound, the Activity (MDA-MB-231 [9]) was “inactive”.

With `C=CC(=O)Nc1cccc(Nc2cccc(OCCCCC)c2)c1` the inhibition (MDA-MB-231 [3]) was “Active”, the Activity [1] was “Active” and the K [5] was 3.6 µM. For the same compound, the inhibition (MDA-MB-231 [6]) was “Active”, the inhibition (MDA-MB-231 [7]) was “Active” and the inhibition (MDA-MB-231 [8]) was “Active”. For the same compound, the Activity (MDA-MB-231 [9]) was “inactive”, the inhibition (MDA-MB-231 [2]) was “Active” and the inhibition [11] was “inactive”.
